≈ marks a conversion by molar mass, not a printed value.
Key:
Sarcina lutea ATCC 9341 = test: Agar dilution MIC, pH 7.2 (Table 2); type: cell-based; conditions: Micrococcus luteus, ATCC9341; Sarcina lutea ATCC 9341; agar dilution, pH 7.2; read-out: Minimum Inhibitory Concentration
Providencia sp. 164 = test: Agar dilution MIC, pH 7.2 (Table 2); type: cell-based; conditions: Providencia sp. 164, produces gentamicin acetyltransferase Type II, read-out: Minimum Inhibitory Concentration
[1] = tested on: Staphylococcus aureus ATCC 6538P; test: Agar-dilution MIC, pH 8.0 (Table 1); type: cell-based; conditions: ATCC6538P, S. aureus ATCC 6538P, agar-dilution, pH 8.0, read-out: Minimum Inhibitory Concentration
[2] = tested on: Pseudomonas aeruginosa KY 8510; test: Agar dilution MIC, pH 7.2 (Table 2); type: cell-based; conditions: KY8510, P. aeruginosa KY 8510, produces kanamycin acetyltransferase, agar dilution, pH 7.2, read-out: Minimum Inhibitory Concentration
[3] = tested on: Pseudomonas aeruginosa BMH 1; test: Agar dilution MIC, pH 7.2 (Table 2); type: cell-based; conditions: BMH1, P. aeruginosa BMH 1, agar dilution, pH 7.2, read-out: Minimum Inhibitory Concentration
Escherichia coli T-5 = test: Agar dilution MIC, pH 7.2 (Table 2); type: cell-based; conditions: T5, E. coli T-5, agar dilution, pH 7.2, read-out: Minimum Inhibitory Concentration
Escherichia coli KY 8349 = test: Agar dilution MIC, pH 7.2 (Table 2); type: cell-based; conditions: KY8349, E. coli KY 8349, produces neomycin-kanamycin phosphotransferase Type I, read-out: Minimum Inhibitory Concentration
[4] = tested on: Pseudomonas aeruginosa BMH 1; test: Agar-dilution MIC, pH 8.0 (Table 1); type: cell-based; conditions: BMH1, P. aeruginosa BMH 1, agar-dilution, pH 8.0, read-out: Minimum Inhibitory Concentration
[5] = tested on: Bacillus subtilis ATCC 6633; test: Agar dilution MIC, pH 7.2 (Table 2); type: cell-based; conditions: ATCC6633, B. subtilis ATCC 6633, agar dilution, pH 7.2, read-out: Minimum Inhibitory Concentration
[6] = tested on: Bacillus subtilis No. 10707; test: Agar-dilution MIC, pH 8.0 (Table 1); type: cell-based; conditions: B. subtilis No. 10707, agar-dilution, pH 8.0, read-out: Minimum Inhibitory Concentration
[7] = tested on: Pseudomonas aeruginosa KY 8516; test: Agar dilution MIC, pH 7.2 (Table 2); type: cell-based; conditions: KY8516, P. aeruginosa KY 8516, probably produces kanamycin acetyltransferase, agar dilution, pH 7.2, read-out: Minimum Inhibitory Concentration
[8] = tested on: Klebsiella pneumoniae No. 8045; test: Agar dilution MIC, pH 7.2 (Table 2); type: cell-based; conditions: K. pneumoniae No. 8045, agar dilution, pH 7.2, read-out: Minimum Inhibitory Concentration
[9] = tested on: Krebsiella pneumoniae ATCC 10031; test: Agar-dilution MIC, pH 8.0 (Table 1); type: cell-based; conditions: Klebsiella pneumoniae, ATCC10031; K. pneumoniae ATCC 10031; agar-dilution, pH 8.0; read-out: Minimum Inhibitory Concentration
[10] = tested on: strains of the aforementioned resistant bacteria; test: Protection tests against infections induced by resistant bacteria; type: in vivo
Proteus vulgaris 6897 = test: Agar dilution MIC, pH 7.2 (Table 2); type: cell-based; conditions: Proteus vulgaris; P. vulgaris 6897; agar dilution, pH 7.2; read-out: Minimum Inhibitory Concentration
Escherichia coli KY 8348 [11] = test: Agar-dilution MIC, pH 8.0 (Table 1); type: cell-based
Description: (§1) The former bacterium inactivates kanamycins and gentamicins by adenylation, and the latter inactivates gentamicins by acetylation.

Escherichia coli KY 8327 [12] = test: Agar-dilution MIC, pH 8.0 (Table 1); type: cell-based
Description: as §1

Proteus mirabilis 1287 = test: Agar dilution MIC, pH 7.2 (Table 2); type: cell-based; conditions: Proteus mirabilis; P. mirabilis 1287; agar dilution, pH 7.2; read-out: Minimum Inhibitory Concentration
Escherichia coli T-2 = test: Agar dilution MIC, pH 7.2 (Table 2); type: cell-based; conditions: T2, E. coli T-2, agar dilution, pH 7.2, read-out: Minimum Inhibitory Concentration
[13] = tested on: Pseudomonas aeruginosa KY 8511; test: Agar dilution MIC, pH 7.2 (Table 2); type: cell-based; conditions: KY8511, P. aeruginosa KY 8511, produces gentamicin acetyltransferase Type I and neomycin-kanamycin phosphotransferase Type I, agar dilution, pH 7.2, read-out: Minimum Inhibitory Concentration
Escherichia coli KY 8348 [14] = test: Agar dilution MIC, pH 7.2 (Table 2); type: cell-based; conditions: KY8348, E. coli KY 8348, produces gentamicin acetyltransferase Type I, read-out: Minimum Inhibitory Concentration
[15] = tested on: Proteus vulgaris ATCC 6897; test: microbe, parasite or virus in culture; type: cell-based; conditions: ATCC6897, P. vulgaris ATCC 6897, agar-dilution, pH 8.0, read-out: Minimum Inhibitory Concentration
Escherichia coli KY 8327 [16] = test: Agar dilution MIC, pH 7.2 (Table 2); type: cell-based; conditions: KY8327, E. coli KY 8327, read-out: Minimum Inhibitory Concentration
[17] = tested on: Staphylococcus aureus Smith; test: Agar dilution MIC, pH 7.2 (Table 2); type: cell-based; conditions: S. aureus Smith, agar dilution, pH 7.2, read-out: Minimum Inhibitory Concentration
[18] = Acute toxicity in mice, intravenous injection; conditions: mouse, in vivo
[19] = tested on: Staphylococcus aureus 209 P; test: Agar dilution MIC, pH 7.2 (Table 2); type: cell-based; conditions: S. aureus 209 P, agar dilution, pH 7.2, read-out: Minimum Inhibitory Concentration
Escherichia coli ATCC 26 = test: Agar-dilution MIC, pH 8.0 (Table 1); type: cell-based; conditions: ATCC26, E. coli ATCC 26, agar-dilution, pH 8.0, read-out: Minimum Inhibitory Concentration
Escherichia coli KY 8321 = test: Agar dilution MIC, pH 7.2 (Table 2); type: cell-based; conditions: KY8321, E. coli KY 8321, produces gentamicin adenyltransferase and neomycin-kanamycin phosphotransferase Type II, agar dilution, pH 7.2, read-out: Minimum Inhibitory Concentration
[20] = tested on: Salmonella typhosa ATCC 9992; test: Agar-dilution MIC, pH 8.0 (Table 1); type: cell-based; conditions: Salmonella enterica, pH 8, read-out: Minimum Inhibitory Concentration
[21] = tested on: Escherichia coli having R factors; test: Antibacterial activity against R factor strains; type: cell-based; conditions: E. coli having R factors, resistant to known aminoglycoside antibiotics

Compound: CNC[C@@H]1CC[C@@H](N)[C@@H](O[C@H]2[C@H](O)[C@@H](O[C@H]3OC[C@](C)(O)[C@H](NC)[C@H]3O)[C@H](NC(=O)[C@@H](O)CCN)C[C@@H]2N)O1 [Compound IV, 1-N-[L-(-)-α-hydroxy-γ-aminobutyryl] XK-62-2]
- MIC (Sarcina lutea ATCC 9341): 0.4 µg/mL (≈ 0.708 µM)
- MIC (Providencia sp. 164): 12.5 µg/mL (≈ 22.1 µM)
- MIC [1]: 0.016 µg/mL (≈ 0.0283 µM)
- MIC [2]: 3.12 µg/mL (≈ 5.53 µM)
- MIC [3]: 1.56 µg/mL (≈ 2.76 µM)
- MIC (Escherichia coli T-5): 0.4 µg/mL (≈ 0.708 µM)
- MIC (Escherichia coli KY 8349): 0.2 µg/mL (≈ 0.354 µM)
- MIC [4]: 2.08 µg/mL (≈ 3.68 µM)
- MIC [5]: 0.1 µg/mL (≈ 0.177 µM)
- MIC [6]: 0.004 µg/mL (≈ 0.00708 µM)
- MIC [7]: 3.12 µg/mL (≈ 5.53 µM)
- MIC [8]: 0.2 µg/mL (≈ 0.354 µM)
- MIC [9]: 0.008 µg/mL (≈ 0.0142 µM)
- antibacterial activity in protection tests ([10]; infections induced by resistant bacteria, versus gentamicin antibiotics and XK-62-2): much higher antibacterial activity than the gentamicin antibiotics and XK-62-2
- retention of the α-hydroxy-γ-aminobutyryl group in vivo ([10]; protection tests, in vivo): maintain the α-hydroxy-γ-aminobutyryl group in vivo
- MIC (Proteus vulgaris 6897): 3.12 µg/mL (≈ 5.53 µM)
- antibacterial activity (in words) (Escherichia coli KY 8348 [11]; E. coli KY 8348, from Table 1): strong anti-bacterial activity
- MIC (Escherichia coli KY 8348 [11]; Escherichia coli, KY8348, E. coli KY 8348, produces gentamicin acetyltransferase Type I, agar-dilution, pH 8.0, read-out: Minimum Inhibitory Concentration): 0.004 µg/mL (≈ 0.00708 µM)
- antibacterial activity (in words) (Escherichia coli KY 8327 [12]; E. coli KY 8327, from Table 1): strong anti-bacterial activity
- MIC (Escherichia coli KY 8327 [12]; Escherichia coli, KY8327, E. coli KY 8327, produces gentamicin adenyltransferase, agar-dilution, pH 8.0, read-out: Minimum Inhibitory Concentration): 0.016 µg/mL (≈ 0.0283 µM)
- MIC (Proteus mirabilis 1287): 3.12 µg/mL (≈ 5.53 µM)
- MIC (Escherichia coli T-2): 0.4 µg/mL (≈ 0.708 µM)
- MIC [13]: 3.12 µg/mL (≈ 5.53 µM)
- MIC (Escherichia coli KY 8348 [14]): 0.1 µg/mL (≈ 0.177 µM)
- MIC [15]: 0.065 µg/mL (≈ 0.115 µM)
- MIC (Escherichia coli KY 8327 [16]): 0.2 µg/mL (≈ 0.354 µM)
- MIC [17]: 0.1 µg/mL (≈ 0.177 µM)
- LD50 [18]: 250 mg/kg
- MIC [19]: 0.1 µg/mL (≈ 0.177 µM)
- MIC (Escherichia coli ATCC 26): 0.004 µg/mL (≈ 0.00708 µM)
- MIC (Escherichia coli KY 8321): 0.2 µg/mL (≈ 0.354 µM)
- MIC [20]: 0.008 µg/mL (≈ 0.0142 µM)
- antibacterial activity (in words) [21]: strong anti-bacterial activity

Reference: US4055715A, “Method of producing 1-N-[L-(-)-α-hydroxy-γ-aminobutyryl]XK-62-2” (Abbott Laboratories, priority 1974, dated 1977)
